Results on one molecule are retold here after paper PMC9302014, “PEGylation improves the therapeutic potential of dimerized translationally controlled tumor protein blocking peptide in ovalbumin-induced mouse model of airway inflammation” (Drug Delivery, 2022).

The test system of the assay is OVA-induced allergic airway inflammation. The assay is described as follows: Mouse model of OVA-induced allergic airway inflammation. The class given is in vivo. The note with it: single 1 mg/kg intraperitoneal on day 32, n = 10-12. Here is the method: Sixty female BALB/c mice, 6–7 weeks of age, were randomly divided into five groups (12 mice per group) and intraperitoneally sensitized on days 1 and 14 with 50 μg OVA emulsified in 2 mg aluminum hydroxide in a total volume of 200 μl. The control group of naïve mice received the same volume of PBS for the duration of the experiment. Two weeks after the second sensitization, the animals were challenged with 200 μg of OVA through intranasal administration under light anesthesia on days 28, 30, 32, and 34. […]. On day 35, the mice were sacrificed and BALF, lung tissue, and serum were collected for further analysis.
Mice were anesthetized, and the trachea was excised, and cannulated with a polyethylene tube. The lungs were lavaged with 0.8 ml of PBS four times, and 0.6 ml of BALF was obtained. The collected lavage fluid was cooled on ice and centrifuged at 1,000 rpm for 10 min at 4 °C. The supernatant was used for ELISA assays. The pellets were resuspended in 0.1 ml PBS, and the total inflammatory cell numbers were quantified using a Hemavet (Drew Scientific Inc., Oxford, CT).
After lavage, the right lung lobe was isolated and stored at −80 °C until required. The lung tissue was homogenized in 50 mM Tris-HCl buffer (pH 7.4) containing 150 mM NaCl, 1 mM EDTA, 0.25% deoxycholate, and a protease inhibitor (Sigma) using a tissuelyser II (Qiagen). The lung homogenates were centrifuged at 10,000 × g for 10 min, and the supernatants were collected and used for ELISA assay.
The left lung lobe was fixed in 4% formaldehyde, embedded in paraffin, and sectioned at a thickness of 4 μm. The sections were stained with hematoxylin and eosin (H&E) to detect infiltration of inflammatory cells and with periodic acid-Schiff (PAS) staining for the analysis of goblet cells hyperplasia/mucus production. The H&E stained sections were scored for the presence of inflammatory cells using the following scale: (0) = absent, (1) = rare, (2) = mild, (3) = moderate, (4) = severe. Scoring was performed by 6 observers in a blinded manner. Also, the area of H&E stained cells was quantified in the selected field, and the area of PAS-positive cells per bronchiole was expressed as the % of the total epithelial area using ImageJ software (National Institute of Health, Bethesda, MD).
Statistical analysis was performed using GRAPHPAD^TM PRISM version 8.0 for Windows (GraphPad Software, San Diego, CA). Statistical significance was determined using Student’s two-tailed unpaired t-test for comparisons between two groups. For more than 3 groups, a one-way analysis of variance (ANOVA) was followed by Tukey’s test. Error bars were expressed as the mean ± the standard error of the mean (SEM) of 10 to 12 mice per group. Significant differences between means were defined as p < 0.05.

`C[C@@H]1C[C@H]2[C@@H]3CCC4=CC(=O)C=C[C@]4(C)[C@@]3(F)[C@@H](O)C[C@]2(C)[C@@]1(O)C(=O)CO` [Dex, dexamethasone]: the “number of lymphocytes in BALF compared to the OVA group” value is given as “did not significantly suppress”, the “number of monocytes in BALF compared to the OVA group” value is “did not significantly suppress” and the “number of total cells (total leukocytes) in BALF compared to the OVA-challenged group” value is “no difference”. The “levels of IL-4, IL-5, and IL-13 in lung homogenates increased by OVA challenge” value (ELISA) is “suppressed”.
